# Source: publication PMC10731644, “Toward ^68Ga and ^64Cu Positron Emission Tomography Probes: Is H2dedpa-N,N′-pram the Missing Link for dedpa Conjugation?” (Inorganic Chemistry, 2023)
# Where two headings read alike, the source gives them in different places. Marks after values point to notes of the source that are not given here.
# Key:
# [1] = cited from earlier work
# [2] = cited from earlier work; remark: listed apart in the source
# [3] = cited from earlier work; for pGa: [L] = 10 μM, [M] = 1 μM, pH = 7.4
# [4] = Complex formation equilibria with Cu(II) (potentiometric–spectrophotometric and in-batch acidic UV titrations); type: physicochemical; conditions: literature chelators, no reference given for the value; [L] = 10 μM, [M] = 1 μM, pH = 7.4
# Description: Protonation constants and metal stability constants were determined through a multitechnique approach. Combined potentiometric–spectrophotometric titrations were carried out using a Metrohm Titrando 809 equipped with a Ross combined electrode and a Metrohm Dosino 800. The glass cell containing the solutions to be titrated was maintained at a constant temperature, 25 °C, and connected with an inlet–outlet tube for nitrogen gas (purified through a 10% NaOH solution) to exclude CO2 prior to and during the titration. Daily electrode calibrations were carried out at proton ion concentration, and the results were analyzed with the Gran[41] procedure to obtain the standard potential (E°) and the ionic product of water pKw at T = 25 °C and I = 0.16 M NaCl. […] The exact amount of acid present was determined by the titration of equimolar solutions of either Cu(II) or Ga(III) and Na2H2EDTA using Gran plotting.[41]
# Complex formation equilibria of either Ga(III) or Cu(II) with H2L^1 were studied using two different methods. […] The pH in the most acidic samples was calculated from the H^+ concentration when the pH was below the electrode threshold. From very acidic pH, both Cu(II) and Ga(III) complexes formed, and the first protonated complex species ([Cu(H3L^1)]^3+ and [Ga(H2L^1)]^3+) were determined through the fitting of these experiments with the HypSpec2014 program[42] […]
# [5] = Complex formation equilibria with Ga(III) (potentiometric–spectrophotometric and in-batch acidic UV titrations); type: physicochemical; conditions: for pGa, corrected value: from corrected log KML, [L] = 10 μM, [M] = 1 μM, pH = 7.4; for log KML (M = Ga^3+), corrected value: refit of potentiometric curve in competition with [Ga(OH)4]−, I = 0.15 M NaCl, 25 °C (Supporting Information)
# Description: Protonation constants and metal stability constants were determined through a multitechnique approach. Combined potentiometric–spectrophotometric titrations were carried out using a Metrohm Titrando 809 equipped with a Ross combined electrode and a Metrohm Dosino 800. The glass cell containing the solutions to be titrated was maintained at a constant temperature, 25 °C, and connected with an inlet–outlet tube for nitrogen gas (purified through a 10% NaOH solution) to exclude CO2 prior to and during the titration. […] The calibrations involved HCl standard being titrated with carbonate-free titrant NaOH(aq) (0.15 M), and the ionic strength was maintained constant to 0.16 M by the addition of a NaCl solution. The NaOH was previously standardized against freshly dried potassium hydrogen phthalate crystals. Copper and gallium metal-ion solutions used in metal complexation experiments were prepared by the dilution of AA standards. The exact amount of acid present was determined by the titration of equimolar solutions of either Cu(II) or Ga(III) and Na2H2EDTA using Gran plotting.[41]
# Complex formation equilibria of either Ga(III) or Cu(II) with H2L^1 were studied using two different methods. […] The pH in the most acidic samples was calculated from the H^+ concentration when the pH was below the electrode threshold. From very acidic pH, both Cu(II) and Ga(III) complexes formed, and the first protonated complex species ([Cu(H3L^1)]^3+ and [Ga(H2L^1)]^3+) were determined through the fitting of these experiments with the HypSpec2014 program[42] (Figures S50–S52 and S56–S58 and Table S3). […] Dissociation constants corresponding to the hydrolysis of Ga(III) and Cu(II) aqueous ions included in the calculations were taken from Baes and Mesmer.[46] Complexation of H2L^1 with Ga(III) was further corroborated by the findings of ^1H NMR experiments at different pD values (Figures 3 and S26). Similarly, complexation of H2L^2 with Cu(II) or Ga(III) was studied by in-batch acidic UV experiments in a set of solutions prepared with the experimental conditions [H2L^2] = [Ga^3+] = 1 × 10^–4 M; [H2L^2] = [Cu^2+] = 7 × 10^–4 M, and the pH was adjusted by the addition of different amounts of standardized HCl. The ionic strength was maintained constant at 0.16 M when possible by the addition of NaCl. The first-formed complex species ([Cu(HL^2)]^+, [CuL^2], and [GaL^2]^+) were determined through fitting of the experimental data (Figures S53–S55 and S59–S61 and Table S3). […]
# [6] = Protonation constants by combined potentiometric–spectrophotometric, in-batch acidic UV and 1H NMR titrations; type: physicochemical; conditions: 25 °C, I = 0.16 M NaCl
# Description: Protonation constants and metal stability constants were determined through a multitechnique approach. Combined potentiometric–spectrophotometric titrations were carried out using a Metrohm Titrando 809 equipped with a Ross combined electrode and a Metrohm Dosino 800. The glass cell containing the solutions to be titrated was maintained at a constant temperature, 25 °C, and connected with an inlet–outlet tube for nitrogen gas (purified through a 10% NaOH solution) to exclude CO2 prior to and during the titration. Daily electrode calibrations were carried out at proton ion concentration, and the results were analyzed with the Gran[41] procedure to obtain the standard potential (E°) and the ionic product of water pKw at T = 25 °C and I = 0.16 M NaCl. The calibrations involved HCl standard being titrated with carbonate-free titrant NaOH(aq) (0.15 M), and the ionic strength was maintained constant to 0.16 M by the addition of a NaCl solution. The NaOH was previously standardized against freshly dried potassium hydrogen phthalate crystals. Copper and gallium metal-ion solutions used in metal complexation experiments were prepared by the dilution of AA standards. The exact amount of acid present was determined by the titration of equimolar solutions of either Cu(II) or Ga(III) and Na2H2EDTA using Gran plotting.[41]
# Protonation equilibria of either H2L^1 or H2L^2 were studied by titrations of solutions containing [H2L^1] = 9.56 × 10^–4 M or [H2L^2] = 5.87 × 10^–4 M at 25 °C and 0.16 M NaCl ionic strength using a potentiometric–spectrophotometric procedure. In each titration (100–150 equilibrium points and pH range 2–11), the electromotive force values were recorded after 2 min of each NaOH addition and the spectrophotometer was synchronized to obtain a UV spectrum for each pH data point. Spectra were recorded in the 200–400 nm wavelength range with a 0.2-cm-path-length optic dip probe connected to a Varian Cary 60 UV–vis spectrophotometer. The obtained spectrophotometric and potentiometric data were analyzed with HypSpec2014([42]) and HyperQuad2013([43]) to obtain the protonation constants and molar absorptivities of the different absorbing species of the ligands (Table 3 and Figures S42–S49 and S51B). […] Additional ^1H NMR titrations were carried out for H2L^1 to better understand the protonation sequence and their assignments (Figures S45 and S46). A set of H2L^1 solutions (4 × 10^–3 M) in D2O were prepared by the addition of DCl or NaOD, and their ^1H NMR spectra were recorded. The pH values of the samples were then measured with a microelectrode (Mettler Toledo), which was calibrated daily at H^+ concentration as described above. The pH was corrected for the deuterium isotopic effect (pD = pHreading + 0.4).[44]
# [7] = Table S4 footnote f, ref 8 (SI)
# [8] = Table S4 footnote c, ref 5 (SI)
# [9] = Table S4 footnote d, ref 6 (SI)
# [10] = Table S4 footnote e, ref 7 (SI)
compound,measurement,setting,value
"O=C(O)CN1CCN(CC(=O)O)CCN(CC(=O)O)CCN(CC(=O)O)CC1 [DOTA, 1,4,7,10-tetraazacyclododecane-1,4,7,10-tetraacetic acid]",log KML (M = Cu^2+),[1],22.21(1) ^f
same,"log KHqL, H2L + H+ ⇆ H3L",[2]; [7],4.548 (3)
same,"log KHqL, H3L + H+ ⇆ H4L",[2]; [7],4.130 (3)
same,"log KHqL, HL + H+ ⇆ H2L",[2]; [7],9.680 (1)
same,"log KHqL, L + H+ ⇆ HL",[2]; [7],12.09 (4)
same,∑log KHqL,[2]; [7],30.448
same,log KML (M = Ga^3+),[3],21.33 ^g
same,pCu,[4],16.2
O=C([O-])CN1CCN(CC(=O)[O-])CCN(CC(=O)[O-])CCN(CC(=O)[O-])CC1.[Ga+3] [Ga^III-DOTA],pGa,[3],18.5
same,log KML (M = Ga^3+),[3],21.33
"O=C(O)c1cccc(CNCCNCc2cccc(C(=O)O)n2)n1 [H2dedpa, 1,2-bis[[(6-carboxypyridin-2-yl)methyl]amino]ethane]",log KML (M = Cu^2+),[1],19.16(5) ^d
same,pCu,"[1]; −log [Mfree] at [L] = 10 μM, [M] = 1 μM, pH = 7.4",18.5 ^d
same,"pGa, corrected value",[5],22.2 ^e
same,"log KML (M = Ga^3+), corrected value",[5],22.9(1) ^e
same,"log KHqL, H2L + H+ ⇆ H3L",[2]; [8],3.04
same,"log KHqL, H3L + H+ ⇆ H4L",[2]; [8],2.59
same,"log KHqL, HL + H+ ⇆ H2L",[2]; [8],6.31
same,"log KHqL, L + H+ ⇆ HL",[2]; [8],9.00
same,"log KHqL, H2L + H+ ⇆ H3L",[2]; [9],3.08 (2)
same,"log KHqL, H3L + H+ ⇆ H4L",[2]; [9],2.33 (3)
same,"log KHqL, HL + H+ ⇆ H2L",[2]; [9],6.18 (2)
same,"log KHqL, L + H+ ⇆ HL",[2]; [9],8.69 (1)
"O=C(O)CN1CCN(CC(=O)O)CCN(CC(=O)O)CC1 [NOTA, 1,4,7-triazacyclononane-1,4,7-triacetic acid]",log KML (M = Cu^2+),[1],21.6 ^d
same,"log KHqL, H2L + H+ ⇆ H3L",[2]; [10],3.163(3)
same,"log KHqL, H3L + H+ ⇆ H4L",[2]; [10],1.955(3)
same,"log KHqL, HL + H+ ⇆ H2L",[2]; [10],6.032(4)
same,"log KHqL, L + H+ ⇆ HL",[2]; [10],10.773(7)
same,∑log KHqL,[2]; [10],21.923
same,pGa,[3],27.9 ^g
same,log KML (M = Ga^3+),[3],30.98 ^g
same,pCu,[4],19.2
O=C([O-])c1cccc(CNCCNCc2cccc(C(=O)[O-])n2)n1.[Ga+3] [[Ga(dedpa)]^+],"pGa, corrected value",[5],22.2
same,"log KML (M = Ga^3+), corrected value",[5],22.9(1)
same,log KML (M = Ga^3+),[3],28.11(8)
"N,N′-Bis(3-aminopropyl)-N,N′-bis(6-carboxypyridin-2-yl)-1,2-diaminoethane [H2L^1]","log KHqL, H2L + H+ ⇆ H3L (log K3)",[6],6.78
same,"log KHqL, H3L + H+ ⇆ H4L (log K4)",[6],4.23
same,"log KHqL, H4L + H+ ⇆ H5L (log K5)",[6],2.79
same,"log KHqL, H5L + H+ ⇆ H6L (log K6)",[6],2.01
same,"log KHqL, HL + H+ ⇆ H2L (log K2)",[6],9.91
same,"log KHqL, L + H+ ⇆ HL (log K1)",[6],10.86
